# According to ChEMBL document CHEMBL3045491, “Antituberculosis activity of hydrazones derived from 4-fluorobenzoic acid hydrazide” (2009):
# Tested on: Mycobacterium tuberculosis
# Experiment: Antitubercular activity against Mycobacterium tuberculosis H37Rv ATCC 27294 at 6.25 ug/ml by microplate alamar blue assay
# Type: functional
row,Structure (SMILES),inhibition at 6.25 µg/mL
1,C/C(=N\NC(=O)c1ccc(F)cc1)c1ccco1,53%
2,C/C(=N\NC(=O)c1ccc(F)cc1)c1ccncc1,53%
3,C/C(=N\NC(=O)c1ccc(F)cc1)c1cccs1,50%
4,O=C(N/N=C/c1c(Cl)cccc1Cl)c1ccc(F)cc1,85%
5,O=C(N/N=C/c1cccc(Oc2ccccc2)c1)c1ccc(F)cc1,84%
6,O=C(N/N=C/c1cc(Cl)cc(Cl)c1O)c1ccc(F)cc1,69%
7,O=C(N/N=C/c1cc(Cl)cc(Cl)c1)c1ccc(F)cc1,65%
8,O=C(N/N=C/c1ccc(Cl)cc1Cl)c1ccc(F)cc1,62%
9,CN(C)CCCOc1ccc(/C=N/NC(=O)c2ccc(F)cc2)cc1,58%
10,O=C(N/N=C/c1cccc(F)c1)c1ccc(F)cc1,52%
11,C/C(=N\NC(=O)c1ccc(F)cc1)c1ccc[nH]1,66%
12,C/C(=N\NC(=O)c1ccc(F)cc1)c1ccc(Cl)s1,64%
13,C/C(=N\NC(=O)c1ccc(F)cc1)c1ccccc1,59%
14,C/C(=N\NC(=O)c1ccc(F)cc1)c1ccc(Br)s1,59%
15,C=C/C(C)=N/NC(=O)c1ccc(F)cc1,56%
16,CC/C(=N\NC(=O)c1ccc(F)cc1)c1ccccc1,53%
